Source: US20100273649A1, “Fungicidal Mixtures III” (BASF SE, priority 2007, published 2010)
Where two headings read alike, the source gives them in different places.

What was measured:
Format in all cases: cell-based
Phytophthora infestans = conditions: active compound alone, 7 days after inoculation
Pyricularia oryzae = conditions: active compound alone, 7 days after inoculation
Botrytis cinerea = assay: Activity against grey mold caused by Botrytis cinerea in the microtiterplate test (Botrici)
Septoria tritici = assay: Activity against leaf blotch on wheat caused by Septoria tritici, microtiter test (Septtr); conditions: active compound alone, 7 days after inoculation
[1] = Botrytis cinerea, 168 h, active compound alone, 1 ppm, 7 days after inoculation, read-out: Observed efficacy
[2] = Botrytis cinerea, 168 h, active compound alone, 4 ppm, 7 days after inoculation, read-out: Observed efficacy

N#Cc1c(Cl)c(Cl)c(Cl)c(C#N)c1Cl [Chlorothalonil, 2,4,5,6-tetrachloroisophthalonitrile]
Observed efficacy (Phytophthora infestans; 0.25 ppm): 20%

O=C(OCc1cccc(C(F)(F)F)c1)C(=Cc1ccccc1)C(O)c1cccnc1 (stereo not shown) [I.3, (3-trifluoromethylphenyl)methyl 2-[hydroxyl(pyridine-3-yl)methyl]-3-phenylacrylate]
Observed efficacy (Phytophthora infestans; 1 ppm): 8% | Observed efficacy (Phytophthora infestans; 4 ppm): 10% | Observed efficacy (Pyricularia oryzae; 0.25 ppm): 2% | inhibition of growth at 1 ppm (Botrytis cinerea; [1]): 9% | inhibition of growth at 4 ppm (Botrytis cinerea; [2]): 16% | Observed efficacy (Septoria tritici; 0.063 ppm): 51%

Cc1cc(C)nc(Nc2ccccc2)n1 [Pyrimethanil, 4,6-di-methylpyrimidin-2-ylphenylamine]
Observed efficacy (Septoria tritici; 16 ppm): 50%

Cc1ccc(-c2c(Cl)nc(C#N)n2S(=O)(=O)N(C)C)cc1 [Cyazofamid, 4-chloro-2-cyano-N,N-dimethyl-5-(4-methylphenyl)-1H-imidazole-1-sulfonamide]
inhibition of growth at 0.25 ppm (Botrytis cinerea; Botrytis cinerea, 168 h, active compound alone, 0.25 ppm, 7 days after inoculation, read-out: Observed efficacy): 0%

COC=C(C(=O)OC)c1ccccc1COc1cccc(C(F)(F)F)n1 [Picoxystrobin, methyl 3-methoxy-2-[2-(6-trifluoromethylpyridin-2-yloxymethyl)phenyl]acrylate]
Observed efficacy (Phytophthora infestans; 0.25 ppm): 66% | Observed efficacy (Pyricularia oryzae; 0.016 ppm): 21%

O=C1C2CC=CCC2C(=O)N1SC(Cl)(Cl)Cl (stereo not shown) [Captan, 2-trichloromethylsulfanyl-3a,4,7,7a-tetrahydroisoindole-1,3-dione]
Observed efficacy (Phytophthora infestans; 1 ppm): 26% | inhibition of growth at 1 ppm (Botrytis cinerea; [1]): 64%

Cc1ccc(C(C)NC(=O)[C@@H](NC(=O)OC(C)C)C(C)C)cc1 (stereo partly drawn) [Iprovalicarb, isopropyl [(1S)-2-methyl-1-(1-p-tolylethylcarbamoyl)propyl]carbamate]
inhibition of growth at 1 ppm (Botrytis cinerea; Botrytis cinerea, 168 h, read-out: Observed efficacy): 2%

O=C(Nc1ccccc1-c1ccc(Cl)cc1)c1cccnc1Cl [Boscalid, 2-chloro-N-(4′-chlorobiphenyl-2-yl)nicotinamide]
inhibition of growth at 4 ppm (Botrytis cinerea; [2]): 45%

Fc1ccc([C@]2(Cn3cncn3)O[C@H]2c2ccccc2Cl)cc1 (racemic) [Epoxiconazole, (2RS,3SR)-1-[3-(2-chlorophenyl)-2,3-epoxy-2-(4-fluorophenyl)propyl]-1H-1,2,4-triazole]
Observed efficacy (Phytophthora infestans; 0.25 ppm): 12% | inhibition of growth at 0.063 ppm (Botrytis cinerea; Botrytis cinerea, 168 h, active compound alone, 0.063 ppm, 7 days after inoculation, read-out: Observed efficacy): 4% | Observed efficacy (Septoria tritici; 0.016 ppm): 14%

COC(=O)N(OC)c1ccccc1COc1ccn(-c2ccc(Cl)cc2)n1 [Pyraclostrobin, pyraclostrobin]
Observed efficacy (Pyricularia oryzae; 0.001 ppm): 38% | Observed efficacy (Septoria tritici; 0.001 ppm): 21%

zinc propylenebis(dithiocarbamate) polymer [Propineb]
Observed efficacy (Botrytis cinerea; active compound alone, 4 ppm, 7 days after inoculation): 21%

C=C(C(=O)OCc1cccc(C(F)(F)F)c1)C(O)c1cccnc1 (stereo not shown) [I.1, (3-trifluoromethylphenyl)methyl 2-[hydroxyl(pyridine-3-yl)methyl]acrylate]
Observed efficacy (Phytophthora infestans; 1 ppm): 1% | Observed efficacy (Phytophthora infestans; 4 ppm): 0% | Observed efficacy (Phytophthora infestans; 16 ppm): 42% | Observed efficacy (Pyricularia oryzae; 0.016 ppm): 5% | inhibition of growth at 4 ppm (Botrytis cinerea; [2]): 5% | Observed efficacy (Septoria tritici; 0.016 ppm): 9% | Observed efficacy (Septoria tritici; 16 ppm): 47%
